Values of other authors, collected in publication PMC12495087 (ESMO Open, 2025).
Read-outs that look alike come from different tables or passages of the source.

Columns and labels:
[1] = system: RET-fusion-positive NSCLC; settings: cited from earlier work
[2] = system: RET-fusion-positive solid tumors including RET-mutant MTC; settings: cited from earlier work
[3] = cited from earlier work
[4] = advanced RET-rearranged lung adenocarcinomas
[5] = patients with MTC harboring RET-M918T
[6] = previously treated RET-fusion-positive NSCLC, selpercatinib 160 mg twice daily, pralsetinib 400 mg once daily
[7] = previously treated RET-fusion-positive solid tumors including RET-mutant MTC, 160 mg twice daily

## COc1cc2nccc(Oc3ccc(NC(=O)C4(C(=O)Nc5ccc(F)cc5)CC4)cc3)c2cc1OC [cabozantinib]
[1]; [4]
  ORR: 28%
  mPFS: 5.5 months

## COc1cc2nccc(Oc3ccc(NC(=O)NC4CC4)c(Cl)c3)c2cc1C(N)=O [lenvatinib]
[2]; [5]
  ORR: 16%
  mPFS: 7.3 months

## CO[C@]1(C(=O)N[C@@H](C)c2ccc(-n3cc(F)cn3)nc2)CC[C@H](c2nc(C)cc(Nc3cc(C)[nH]n3)n2)CC1 [pralsetinib]
[1]; [6]
  ORR: 61%
[3]
  grade ≥3 hypertension: ~18%

## COc1ccc(CN2C3CC2CN(c2ccc(-c4cc(OCC(C)(C)O)cn5ncc(C#N)c45)cn2)C3)cn1 [selpercatinib]
[1]; previously treated RET-fusion-positive NSCLC, 160 mg twice daily
  mPFS: 16.5 months
[1]; [6]
  ORR: 64%
[2]; [7]
  1-year PFS: 82%
  mPFS: 13.2 months
[3]
  grade ≥3 hypertension: around 20%
